Where a SMILES comes first, the peptide text is derived from it. Bridges are numbered along the chain shown (N, C = ends). [ ]: non-standard residue; d: D form. The star is where a group is joined. hPhe(3-Cl-4-CF3) = N[C@@H](CCc1ccc(C(F)(F)F)c(Cl)c1)C(=O)O; NPrPhe(4-CF3) = CCCN[C@@H](Cc1ccc(C(F)(F)F)cc1)C(=O)O; NMeGly(cPent) = CN[C@H](C(=O)O)C1CCCC1; Pro(4,4-F2) = O=C(O)[C@@H]1CC(F)(F)CN1; Hyp = O=C(O)[C@@H]1C[C@@H](O)CN1; NMeL = CN[C@@H](CC(C)C)C(=O)O; Morpholide = C1CN(*)CCO1; NMeA = CN[C@@H](C)C(=O)O; Ac5c = NC1(C(=O)O)CCCC1; Aze = O=C(O)[C@@H]1CCN1; Ac4c = NC1(C(=O)O)CCC1; Sar = CNCC(=O)O
Assays:
[1] = biological target: GDP-bound NRAS wild-type protein (Homo sapiens, UniProt P01111); assay: Binding to NRAS by surface plasmon resonance (SPR), Single Cycle Kinetics; conditions: KD ratio NRAS/KRAS, SPR
[2] = biological target: GDP-bound HRAS wild-type protein (Homo sapiens, UniProt P01112); assay: Binding to HRAS by surface plasmon resonance (SPR), Single Cycle Kinetics; conditions: KD ratio HRAS/KRAS, SPR
Sequence of GDP-bound HRAS wild-type protein (P01112 whole entry): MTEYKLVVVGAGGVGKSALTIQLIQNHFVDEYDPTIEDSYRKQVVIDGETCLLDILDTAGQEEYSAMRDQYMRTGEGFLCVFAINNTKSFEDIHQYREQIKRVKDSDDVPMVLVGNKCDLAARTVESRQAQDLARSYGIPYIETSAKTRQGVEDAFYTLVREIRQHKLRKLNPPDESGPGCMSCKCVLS

Sequence of GDP-bound NRAS wild-type protein (P01111 whole entry): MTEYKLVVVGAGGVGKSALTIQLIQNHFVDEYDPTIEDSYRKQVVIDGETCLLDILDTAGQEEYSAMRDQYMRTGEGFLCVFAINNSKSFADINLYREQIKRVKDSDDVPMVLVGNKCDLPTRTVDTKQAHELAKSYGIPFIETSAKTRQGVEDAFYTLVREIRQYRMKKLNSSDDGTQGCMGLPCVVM

With `CCCN1C(=O)CN(C)C(=O)[C@@H]2CCN2C(=O)[C@H]([C@@H](C)CC)NC(=O)[C@H](CC(C)C)N(C)C(=O)C[C@@H](C(=O)N2CCOCC2)NC(=O)[C@H](C2CCCC2)N(C)C(=O)C2(CCC2)NC(=O)[C@@H]2C[C@@H](OCC)CN2C(=O)[C@H](CCc2ccc(C(F)(F)F)c(Cl)c2)NC(=O)CN(C)C(=O)[C@@H]1Cc1ccc(C(F)(F)F)cc1` [PP0342] ([NMeL]I[Aze][Sar][NPrPhe(4-CF3)][Sar][hPhe(3-Cl-4-CF3)][Hyp](Et)[Ac4c][NMeGly(cPent)]D-Morpholide; lactam N-11) the “NRAS/KRAS (ratio of KD for GDP-bound NRAS wild-type to KD for KRAS)” value [1] was “B (a compound having 3 or more and less than 10 is denoted as B)” and the “HRAS/KRAS (ratio of KD for GDP-bound HRAS wild-type to KD for KRAS)” value [2] was “B (a compound having 3 or more and less than 10 is denoted as B)”.

With `CCCN1C(=O)[C@@H]2CCN2C(=O)[C@H](C)N(C)C(=O)[C@H]([C@@H](C)CC)NC(=O)[C@H](CC(C)C)N(C)C(=O)C[C@@H](C(=O)N2CCOCC2)NC(=O)[C@H](C2CCCC2)N(C)C(=O)C2(CCCC2)NC(=O)[C@@H]2CCCN2C(=O)[C@H](CCc2ccc(C(F)(F)F)c(Cl)c2)NC(=O)CN(C)C(=O)[C@@H]1Cc1ccc(C(F)(F)F)cc1` [PP0343] ([NMeL]I[NMeA][Aze][NPrPhe(4-CF3)][Sar][hPhe(3-Cl-4-CF3)]P[Ac5c][NMeGly(cPent)]D-Morpholide; lactam N-11) the “NRAS/KRAS (ratio of KD for GDP-bound NRAS wild-type to KD for KRAS)” value [1] was “C (A compound having a KD ratio of 0.1 or more and less than 3 is denoted as C)” and the “HRAS/KRAS (ratio of KD for GDP-bound HRAS wild-type to KD for KRAS)” value [2] was “B (a compound having 3 or more and less than 10 is denoted as B)”.

`CCCN1C(=O)[C@@H]2CCN2C(=O)[C@H](C)N(C)C(=O)[C@H]([C@@H](C)CC)NC(=O)[C@H](CC(C)C)N(C)C(=O)C[C@@H](C(=O)N2CCOCC2)NC(=O)[C@H](C2CCCC2)N(C)C(=O)C2(CCC2)NC(=O)[C@@H]2CCCN2C(=O)[C@H](CCc2ccc(C(F)(F)F)c(Cl)c2)NC(=O)CN(C)C(=O)[C@@H]1Cc1ccc(C(F)(F)F)cc1` [PP0344] ([NMeL]I[NMeA][Aze][NPrPhe(4-CF3)][Sar][hPhe(3-Cl-4-CF3)]P[Ac4c][NMeGly(cPent)]D-Morpholide; lactam N-11) was tested, and the “NRAS/KRAS (ratio of KD for GDP-bound NRAS wild-type to KD for KRAS)” value [1] was “C (A compound having a KD ratio of 0.1 or more and less than 3 is denoted as C)” and the “HRAS/KRAS (ratio of KD for GDP-bound HRAS wild-type to KD for KRAS)” value [2] was “B (a compound having 3 or more and less than 10 is denoted as B)”.

In the case of `CCCN1C(=O)[C@@H]2CCN2C(=O)[C@H](C)N(C)C(=O)[C@H]([C@@H](C)CC)NC(=O)[C@H](CC(C)C)N(C)C(=O)C[C@@H](C(=O)N2CCOCC2)NC(=O)[C@H](C2CCCC2)N(C)C(=O)C2(CCCC2)NC(=O)[C@@H]2CC(F)(F)CN2C(=O)[C@H](CCc2ccc(C(F)(F)F)c(Cl)c2)NC(=O)CN(C)C(=O)[C@@H]1Cc1ccc(C(F)(F)F)cc1` [PP0345] ([NMeL]I[NMeA][Aze][NPrPhe(4-CF3)][Sar][hPhe(3-Cl-4-CF3)][Pro(4,4-F2)][Ac5c][NMeGly(cPent)]D-Morpholide; lactam N-11), the “NRAS/KRAS (ratio of KD for GDP-bound NRAS wild-type to KD for KRAS)” value [1] is reported as “C (A compound having a KD ratio of 0.1 or more and less than 3 is denoted as C)” and the “HRAS/KRAS (ratio of KD for GDP-bound HRAS wild-type to KD for KRAS)” value [2] is reported as “B (a compound having 3 or more and less than 10 is denoted as B)”.

For `CCCN1C(=O)[C@@H]2CCN2C(=O)[C@H](C)N(C)C(=O)[C@H]([C@@H](C)CC)NC(=O)[C@H](CC(C)C)N(C)C(=O)C[C@@H](C(=O)N2CCOCC2)NC(=O)[C@H](C2CCCC2)N(C)C(=O)C2(CCC2)NC(=O)[C@@H]2CC(F)(F)CN2C(=O)[C@H](CCc2ccc(C(F)(F)F)c(Cl)c2)NC(=O)CN(C)C(=O)[C@@H]1Cc1ccc(C(F)(F)F)cc1` [PP0346] ([NMeL]I[NMeA][Aze][NPrPhe(4-CF3)][Sar][hPhe(3-Cl-4-CF3)][Pro(4,4-F2)][Ac4c][NMeGly(cPent)]D-Morpholide; lactam N-11), the “NRAS/KRAS (ratio of KD for GDP-bound NRAS wild-type to KD for KRAS)” value [1] was “C (A compound having a KD ratio of 0.1 or more and less than 3 is denoted as C)” and the “HRAS/KRAS (ratio of KD for GDP-bound HRAS wild-type to KD for KRAS)” value [2] was “B (a compound having 3 or more and less than 10 is denoted as B)”.

`CCCN1C(=O)[C@@H]2CCN2C(=O)[C@H](C)N(C)C(=O)[C@H]([C@@H](C)CC)NC(=O)[C@H](CC(C)C)N(C)C(=O)C[C@@H](C(=O)N2CCOCC2)NC(=O)[C@H](C2CCCC2)N(C)C(=O)C2(CCCC2)NC(=O)[C@@H]2C[C@@H](OCC)CN2C(=O)[C@H](CCc2ccc(C(F)(F)F)c(Cl)c2)NC(=O)CN(C)C(=O)[C@@H]1Cc1ccc(C(F)(F)F)cc1` [PP0347] ([NMeL]I[NMeA][Aze][NPrPhe(4-CF3)][Sar][hPhe(3-Cl-4-CF3)][Hyp](Et)[Ac5c][NMeGly(cPent)]D-Morpholide; lactam N-11) was tested, and the “NRAS/KRAS (ratio of KD for GDP-bound NRAS wild-type to KD for KRAS)” value [1] was “C (A compound having a KD ratio of 0.1 or more and less than 3 is denoted as C)” and the “HRAS/KRAS (ratio of KD for GDP-bound HRAS wild-type to KD for KRAS)” value [2] was “B (a compound having 3 or more and less than 10 is denoted as B)”.

In the case of `CCCN1C(=O)[C@@H]2CCN2C(=O)[C@H](C)N(C)C(=O)[C@H]([C@@H](C)CC)NC(=O)[C@H](CC(C)C)N(C)C(=O)C[C@@H](C(=O)N2CCOCC2)NC(=O)[C@H](C2CCCC2)N(C)C(=O)C2(CCC2)NC(=O)[C@@H]2C[C@@H](OCC)CN2C(=O)[C@H](CCc2ccc(C(F)(F)F)c(Cl)c2)NC(=O)CN(C)C(=O)[C@@H]1Cc1ccc(C(F)(F)F)cc1` [PP0348] ([NMeL]I[NMeA][Aze][NPrPhe(4-CF3)][Sar][hPhe(3-Cl-4-CF3)][Hyp](Et)[Ac4c][NMeGly(cPent)]D-Morpholide; lactam N-11), the “NRAS/KRAS (ratio of KD for GDP-bound NRAS wild-type to KD for KRAS)” value [1] is reported as “C (A compound having a KD ratio of 0.1 or more and less than 3 is denoted as C)” and the “HRAS/KRAS (ratio of KD for GDP-bound HRAS wild-type to KD for KRAS)” value [2] is reported as “B (a compound having 3 or more and less than 10 is denoted as B)”.

With `CCCN1C(=O)[C@@H]2CCN2C(=O)CN(C)C(=O)[C@H]([C@@H](C)CC)NC(=O)[C@H](CC(C)C)N(C)C(=O)C[C@@H](C(=O)N2CCOCC2)NC(=O)[C@H](C2CCCC2)N(C)C(=O)C2(CCCC2)NC(=O)[C@@H]2CCCN2C(=O)[C@H](CCc2ccc(C(F)(F)F)c(Cl)c2)NC(=O)CN(C)C(=O)[C@@H]1Cc1ccc(C(F)(F)F)cc1` [PP0349] ([NMeL]I[Sar][Aze][NPrPhe(4-CF3)][Sar][hPhe(3-Cl-4-CF3)]P[Ac5c][NMeGly(cPent)]D-Morpholide; lactam N-11) the “NRAS/KRAS (ratio of KD for GDP-bound NRAS wild-type to KD for KRAS)” value [1] was “C (A compound having a KD ratio of 0.1 or more and less than 3 is denoted as C)” and the “HRAS/KRAS (ratio of KD for GDP-bound HRAS wild-type to KD for KRAS)” value [2] was “B (a compound having 3 or more and less than 10 is denoted as B)”.

`CCCN1C(=O)[C@@H]2CCN2C(=O)CN(C)C(=O)[C@H]([C@@H](C)CC)NC(=O)[C@H](CC(C)C)N(C)C(=O)C[C@@H](C(=O)N2CCOCC2)NC(=O)[C@H](C2CCCC2)N(C)C(=O)C2(CCC2)NC(=O)[C@@H]2CCCN2C(=O)[C@H](CCc2ccc(C(F)(F)F)c(Cl)c2)NC(=O)CN(C)C(=O)[C@@H]1Cc1ccc(C(F)(F)F)cc1` [PP0350] ([NMeL]I[Sar][Aze][NPrPhe(4-CF3)][Sar][hPhe(3-Cl-4-CF3)]P[Ac4c][NMeGly(cPent)]D-Morpholide; lactam N-11) was tested, and the “NRAS/KRAS (ratio of KD for GDP-bound NRAS wild-type to KD for KRAS)” value [1] was “C (A compound having a KD ratio of 0.1 or more and less than 3 is denoted as C)” and the “HRAS/KRAS (ratio of KD for GDP-bound HRAS wild-type to KD for KRAS)” value [2] was “B (a compound having 3 or more and less than 10 is denoted as B)”.

Source: patent publication US20250230193A1, “CYCLIC COMPOUND HAVING SELECTIVE KRAS INHIBITORY EFFECT ON HRAS AND NRAS” (CHUGAI SEIYAKU KABUSHIKI KAISHA, priority 2022, published 2025)
